From patent US12296365B2, “Peroxyformic acid compositions for membrane filtration cleaning” (ECOLAB USA INC., priority 2015, dated 2025)

Columns and labels:
[1] = RO membrane compatibility soak, overall conclusion; conditions: 300 ppm, simulated 1 year
[2] = RO membrane compatibility soak, clean water flux and salt rejection; conditions: Koch HRX; 57 ppm, simulated 3 Years, soak 234 hr, 77 F
Description: In particular, the effects of PFA on reverse osmosis members which contain a polyamide structure in comparison with known control chemicals was tested. Three different membranes were tested including Koch HRX, Hydranautics CPAS and Hydranautics ESPA2+. Membranes were soaked in duplicate, in chemistries according to Table 4.
Membranes were then conditioned in Ultrasil 110 at a pH of 11 for 90 minutes at 50° C., followed by a rinse in DI water.
Each of the chemistries, with the exception of PFA was refreshed daily. PFA was refreshed hourly. After the simulated exposure the membranes are rinsed with DI water and placed on the Flat Sheet Membrane skid (Model M20). The membranes were rinsed with DI water for 24 hours at standard UF pressure and temperature. Once 24 hours was completed the membranes were subjected to alkaline conditioning step until solution pH is 11. 15.14 grams of NaCl was added to the recirculating water (2000 ppm NaCl) and the system was allowed to continue circulating. The conductivity of each permeate tube and feed was then measured and recorded and shown as percent rejection. The percent rejection was determined by (conductivity of the feed−conductivity of the permeate)/(conductivity of the feed).

Structure (SMILES) | flux and salt rejection results versus control (in words) [1] | Water Flux (LMH) Peracetic acid [2] [LMH]
O=COO [PFA, peroxyformic acid] | comparable results to that of the commercially-available control peroxyacetic acid compositions at 3 years | –
CC(=O)OO [Peracetic acid] | – | 75.22
